From a melting point compilation (Tetko et al.; mined from patent text by program, amines drawn as free bases though some values may be those of a salt)

melting point [°C]	Structure (SMILES)
259 to 260	CCOC(=O)C(=O)Nc1ccc(N(C)C)cc1O
249	Cc1nc2c3c(ccc2n1C)[C@@H](OCC(F)F)[C@H](O)[C@@H](c1ccccc1)O3
165	O=C(C=Cc1cccc(S(=O)(=O)NCc2ccco2)c1)NO
128 to 130	OC1CSC(Sc2ccc(C(F)(F)F)cc2)C(O)C1O (stereo not given)
236 to 239	COc1cc(-c2c3c(cc4ccc5c(c24)OCO5)C(=O)NC3)ccc1OCc1ccccc1
174 to 175	CCS(=O)(=O)c1ccc(-c2cc(C(F)(F)F)ccc2OCC(=O)O)cc1C(F)(F)F
245 to 250	CC12CCC(O)CC1=CCC1C2CCC2(C)C(=C(C#N)CC(=O)O)CCC12 (stereo not given)
209 to 210	COc1cc(C(=O)N2Cc3ccccc3Cc3ccccc32)ccc1NC(=O)C1(C)C=CC=CC1 (stereo not given)
68 to 70	Cc1ccc(S(=O)(=O)OCC2CCN(C(=O)c3cccc(C)c3)CC2)cc1
114 to 116	OC(CCl)CN1CCN(C(c2ccccc2)c2ccccc2)CC1 (stereo not given)
185	CC(C)(C)OC(=O)NCCCCCNC1(c2ccccc2Cl)C(=O)Nc2ccc(Cl)cc21 (stereo not given)
134 to 140	COC(=O)C1=C(C)NC(C)=C(C(=O)OCCCCCCN2C(=O)c3ccccc3C2=O)C1c1cccc([N+](=O)[O-])c1 (stereo not given)
126 to 128	CCOC(=O)C(Cc1ccc(OC)c(OC)c1)NC(=O)c1ccc(OC(C)C)cc1 (stereo not given)
183 to 185	O=C1C2CC(O)CCN2C(=O)N1c1ncc(Cl)cc1F (stereo not given)
122	CNC(=O)NN(CC(=O)OC)c1ccccc1
125 to 126	COc1ccc(C)c(NC(=O)C(C)=Cc2ccccc2)c1
78 to 81	COc1ccc2nc(CBr)sc2c1
193 to 195	C[C@@H]1C[C@H](C)CN(S(=O)(=O)c2ccc(Cl)c(C(=O)NCCCC(=O)O)c2)C1
220 to 222	NC(=O)C(O)C1OC(n2cnc3c(N)ncnc32)C(O)C1O (stereo not given)
167 to 168	CNC(=O)c1ccc(C(=O)OC)cc1N
129 to 131	Nc1nc(-c2cc(OCc3ccccc3)no2)cs1
55 to 56	CCc1cc(C(C)=O)c(O)cc1OCCCC(C)(C)C#N
198	O=c1[nH]c2cc(Cl)c(Cl)cc2n1CCCBr
118 to 120	c1ccc(CCN2CCN(c3n[nH]c4ccccc34)CC2)cc1
166 to 168	COc1nc(NC(=O)NS(=O)(=O)Oc2ccccc2-c2ccon2)nc(OC)n1

melting point [°C]	Structure (SMILES)
36 to 38	CCCCOC1CCC(=O)N1 (stereo not given)
164	N=C(N)NC(=O)c1cn(-c2ccnc3ccccc23)c2ncccc12
249 to 250	Clc1nc2ccccc2c2[nH]c3ccccc3c12
195 to 197	Nc1ncnc2c1ncn2OCC(CO)SCP(=O)(O)O (stereo not given)
190 to 192	COc1ccc(/C(=C/C(=O)O)c2cc(C)cc(Cl)c2)cc1
199 to 201	CN(C(=O)CCS(C)(=O)=O)c1nnc(-c2cccnc2)s1
85 to 86	Cc1cccc(OC(F)F)c1NC(=O)CCl
175 to 176	COc1cc(-c2c(Cl)c(CN3C(=O)CCC3=O)nc3sc4c(c23)CCNC4)ccc1OC(C)C
67.4 to 68.2	OCC/C(CCCCCCCCS)=C(\CCO)CCCCCCCCS
164 to 168	CC(C)(C)c1cc(N=Nc2ccc(Cl)cc2Cl)c(O)c(C(C)(C)C)c1
164 to 165	COC(=O)[C@H]1[C@@H]2CC[C@@](NC(=O)OC(C)(C)C)(C(=O)O)[C@@H]21
145 to 149	CCc1nc2c(cnn2CC)c(NC2CCOCC2)c1CNC(=O)c1cccc(C(=O)NCc2ccc(Cl)c(-c3cccc(CN4CC5CC4CN5)c3)c2)c1 (stereo not given)
130 to 132	CN(C)C(=O)Nc1ccc(OS(C)(=O)=O)c(Cl)c1
62 to 67	Nc1ccc(-c2cccs2)c(C(=O)Nc2ccc3c(c2)CCC3)c1
91	CON=C(C#N)C(=O)NC(=O)NCCCCCC(=O)OC
118 to 121	CCOC(=O)c1cnn(-c2ccc(C(F)(F)F)cc2[N+](=O)[O-])c1N
192 to 194	Cc1oc2c(NC(=O)c3c(Cl)ccc(O)c3Cl)cccc2c1C
172 to 174	Cc1nc2c(-c3cccc(N4CCN(CCO)CC4)c3)cnn2c(N)c1-c1ccc(F)c(F)c1
140 to 145	CC#CCOc1ccc(S(=O)(=O)N[C@H]2CCCC[C@H]2C(=O)NO)cc1
183	CC(C)(C)OC(=O)Nc1cc(OC(C)(C)C)c(C#Cc2ccc(F)cc2)cc1N
71	C=CCOc1ccc(C(=O)c2ccccc2)cc1
> 260	COC(=O)c1ccc(C=CC(=O)N2CCc3c([nH]c4ccccc34)C2c2ccc3c(c2)CCO3)nc1 (stereo not given)
188	CC(C)S(=O)(=O)Nc1cccc(C=C2c3ccccc3CCc3ccccc32)c1
178 to 179	COc1cc2c(cc1C(O)COc1ccc(C(=O)O)c(O)c1)C(C)(C)CCC2(C)C (stereo not given)
119 to 121	C=CC(=O)NCc1ccc([N+](=O)[O-])cc1

melting point [°C]	Structure (SMILES)
> 300	Nc1nc2c(ncn2COC(CO)COC(=O)C2(N)CC2)c(=O)[nH]1 (stereo not given)
120 to 122	c1cncc(NCCCOc2cccc(CN3CCCCC3)c2)c1
118	CCOC(=O)c1[nH]c2ccc(C)cc2c1C
159 to 163	COc1ccc(Cn2cnc3c(Cl)ncnc32)cc1OC
230	COCC(=O)N1CCc2cc(S(=O)(=O)N3CCN(c4cccc(Cl)c4)CC3)ccc21
138 to 139	C=CCC1CC(NC(=O)C(F)(F)F)C(OC(=O)c2ccc([N+](=O)[O-])cc2)C(C)O1 (stereo not given)
192 to 194	CN1CCN(C(=O)Nc2ccccc2C=Cc2cc(C(C)(C)C)c(O)c(C(C)(C)C)c2)CC1
232 to 233	CC(C)c1nc(Cc2ccccc2)c2c(c1O)COC2
142 to 144	Cc1cc(C)c2sc(N)nc2c1
70	COC(=O)c1ccc(CNC(=O)C2Cc3ccccc3N2S(=O)(=O)c2ccc(-c3cccc(C(F)(F)F)c3)cc2)cc1 (stereo not given)
205 to 209	COC(=O)C1=C(C)NC(=O)N(C)C1c1cccc(N)c1 (stereo not given)
207 to 208	Cc1c(C(=O)O)ccc2c1CCCO2
172 to 173	O=C(O)C=CC(=O)c1ccccc1O
216 to 218	O=S(=O)(c1ccccc1)n1c2ccc(C=Cc3ccccc3)cc2c2c(Cl)ccnc21
76 to 80	CCOc1ccc(CC2NCCc3cc(OC(C)C)c(OC(C)C)cc32)cc1OCC (stereo not given)
195 to 199	O=C(O)CN1C(=O)C(=Cc2ccc(OCc3ccc(OC(F)(F)F)cc3)c(OCc3ccccc3)c2)SC1=S
239 to 241	COc1ccc(NCCn2nc(O)c3[nH]c4cc(Cl)ccc4c(=O)c3c2=O)cc1
122	CCOC(=O)c1oc2ccc([N+](=O)[O-])cc2c1OC(C)C
179 to 181	CC#CCOc1ccc(S(=O)(=O)N(Cc2cccnc2)C2(C(=O)NO)CCCCC2)cc1
90	O=C(CNCc1cccc(-c2ccc(CC(Nc3ccccc3C(=O)c3ccccc3)C(=O)O)cc2)c1)c1ccccc1 (stereo not given)
> 300	C#Cc1c[nH]c2nc(NC(=O)C(C)(C)C)nc(O)c12
39 to 40	O=C(C1CCC1)N1CCSCC1
205 to 207	C[C@]1(COc2ccc(N3CCC(CCOCc4ccc(OC(F)(F)F)cc4)CC3)cc2)Cn2cc([N+](=O)[O-])nc2O1
132	C=C(C)n1c(=O)n(CCN2CCC(Cc3c[nH]c4ccc(F)cc34)CC2)c2ccccc21
151 to 154	CC(C)CCc1c(-c2ccc(S(C)(=O)=O)cc2)cnn(-c2ccc(F)cc2)c1=O

melting point [°C]	Structure (SMILES)
251 to 253	CCOC(=O)c1ncn2c1c(S)nc1ccccc12
239 to 240	CN1CCN(c2ccc(N/C=C3\C(=O)NC(=O)c4ccc(-n5cccc5)cc43)cc2)CC1
89 to 91	c1ccc(CN(CCNC(c2ccccc2)c2ccccc2)Cc2ccccc2)cc1
142 to 144	Cc1ccc(S(=O)(=O)N(C)c2ccc(Cl)cc2S(C)=O)cc1 (stereo not given)
220 to 222	O=C(Nc1ccccc1)c1ccc(CSc2ccc(O)cc2)cc1
222 to 223	CC(C)(O)c1nnc2ccc(-c3c(-c4ccc(F)cc4F)nc4n3CCC4)nn12
113 to 114	CCc1noc(NC(C)=O)c1Cl
296 to 297	COc1cc2nc(N3CCN(c4ccc(O)nn4)CC3)nc(N)c2cc1OC
213 to 216	NC(Cc1c2ccccc2cc2ccccc12)(C(=O)O)C1CC(C(=O)O)C1 (stereo not given)
115 to 117	CCOC(=O)COc1cc2c(C)csc2c(Cl)c1Cl
279	CCOC(=O)C1=C(N)NC2=C(C(=O)CCC2)C1c1cccc2ccccc12 (stereo not given)
85 to 87	CCCSc1cc(C(=O)O)cc(S(N)(=O)=O)c1-c1ccccc1
85.5 to 85.9	COc1ccc2c(c1)CCC1C2CCC2(C)C(NCc3cccs3)CCC12 (stereo not given)
127 to 138	CC(=O)Nc1ccc(CCC(=O)O)cc1
282 to 283	CC(C)(C)OC(=O)Nc1ccccc1NC(=O)c1ccc(CBr)cc1
112	CC(C)(C)OC(=O)C[C@H](NC(=O)CNC(=O)c1csc(NC(=O)NCc2ccccn2)n1)C(=O)NCc1ccccn1
300	Sc1nc2cccccc-2n1
163 to 164	O=C(/C=C/c1cccnc1)NCCc1cccc(O)c1
88 to 89	NC(=O)N1CCC(=O)C(C(c2ccccc2)c2ccccc2)C1 (stereo not given)
158 to 160	O=C(OCN1C(=O)CN(CCN2CC(=O)N(COC(=O)c3cccs3)C(=O)C2)CC1=O)c1cccs1
172 to 174	CCCCn1nc(C(F)F)nc1Cc1ccc(-c2ccccc2-c2nnn[nH]2)nc1
101 to 103	CC(C)(C)OC(=O)CC1CCC(=O)Nc2ccccc21 (stereo not given)
103 to 106	CCN(CC)C(=O)n1ccc(S(=O)(=O)c2cc(Cl)cc(Cl)c2)n1

Structure (SMILES)	melting point [°C]
N#CC1C(c2ccccc2)N1C(=O)NC(=O)CCl (stereo not given)	153 to 158
C[C@@H]1N(c2ccc(C#N)c(C(F)(F)F)c2)C(=O)C[C@@]1(O)C1CC1	84 to 90
